Laboratory results as given in the supplement of paper PMC8671470.

system: myeloid leukemia patient primary cells Pat.3; test: cell viability (% survival relative to DMSO control); higher = less cytotoxic; details: 1 nM; 72 h
In short: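 Where an area under the curve appears, it was computed with the drc and PharmacoGx R packages from log-logistic fits. Those fits used four parameters. The underlying viability data came from CellTiter-Glo after 72 h, normalised to DMSO and 10 μM proteasome-inhibitor wells, with thawed, Ficoll-purified AML or CML patient mononuclear cells at 10,000 cells/well in RPMI 1640 with 10% FBS on 384-well plates pre-printed with 70 compounds at five tenfold concentrations (1–10,000 nM) in duplicate.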

| Structure (SMILES) | cell viability |
| --- | --- |
| COc1cc(/C=C/C(=O)N2CCC=CC2=O)cc(OC)c1OC [Piperlongumine] | 60% |
| C=C(C)[C@H]1Cc2c(ccc3c2O[C@@H]2COc4cc(OC)c(OC)cc4[C@@H]2C3=O)O1 [Rotenone] | 48.6% |
| Oc1ccc(Nc2nc(-c3ccc(Cl)cc3)cs2)cc1 [SKI II] | 56.2% |
| CC[C@@]1(O)C(=O)OCc2c1cc1n(c2=O)Cc2cc3c(CN(C)C)c(O)ccc3nc2-1 [Topotecan] | 90.9% |

same assay, conditions: 10 nM; 72 h

| Structure (SMILES) | cell viability |
| --- | --- |
| O=C(C1CC1)N1CC[C@@H](C=C2NNC(=O)N2c2ccc(-c3ccc4occc4c3)cc2)C1 | > 100% |
| C[C@H](NC(=O)c1sccc1OCc1ccc(Cl)cc1)c1ccccc1 | 83.9% |
| O=C(O)C1=CC(=C(c2ccc(O)c(C(=O)O)c2)c2ccc(O)c(C(=O)O)c2)C=CC1=O [Aurintricarboxylic acid] | > 100% |
| COC(=O)[C@]12CCC(C)(C)C[C@H]1[C@H]1C(=O)C=C3[C@@]4(C)C=C(C#N)C(=O)C(C)(C)[C@@H]4CC[C@@]3(C)[C@]1(C)CC2 [Bardoxolone methyl] | 74.8% |
| Cc1c(-c2ccc(-c3ccccc3F)cc2)nc2ccc(F)cc2c1C(=O)O [Brequinar] | 58% |
| O=C1O/C(=C/Br)CCC1c1cccc2ccccc12 (centres undefined) [Bromoenol Lactone] | 82.1% |
| Nc1nc(Cl)nc2c1ncn2[C@H]1C[C@H](O)[C@@H](CO)O1 [Cladribine] | 69.8% |
| N#CC(C#N)=NNc1ccc(OC(F)(F)F)cc1 [FCCP] | 82.9% |
| O=C1c2cc([N+](=O)[O-])ccc2-n2c1nc1ccccc1c2=O [GNF-Pf-3777] | 86.9% |
| O=C(O)Cn1nnc(-c2cc(N3CCC(Oc4cc(F)ccc4Br)CC3)no2)n1 [MK-8245] | 98.2% |
| C=C(C=NNC(=N)N)NNC(=N)N [Mitoguazone] | 82.2% |
| COc1cc(/C=C/C(=O)N2CCC=CC2=O)cc(OC)c1OC [Piperlongumine] | > 100% |
| C=C(C)[C@H]1Cc2c(ccc3c2O[C@@H]2COc4cc(OC)c(OC)cc4[C@@H]2C3=O)O1 [Rotenone] | 57.4% |
| Oc1ccc(Nc2nc(-c3ccc(Cl)cc3)cs2)cc1 [SKI II] | 92.1% |
| CC[C@@]1(O)C(=O)OCc2c1cc1n(c2=O)Cc2cc3c(CN(C)C)c(O)ccc3nc2-1 [Topotecan] | 89.8% |

same assay, conditions: 100 nM; 72 h

| Structure (SMILES) | cell viability |
| --- | --- |
| O=C(C1CC1)N1CC[C@@H](C=C2NNC(=O)N2c2ccc(-c3ccc4occc4c3)cc2)C1 | 84.2% |
| C[C@H](NC(=O)c1sccc1OCc1ccc(Cl)cc1)c1ccccc1 | 96.3% |
| O=C(O)C1=CC(=C(c2ccc(O)c(C(=O)O)c2)c2ccc(O)c(C(=O)O)c2)C=CC1=O [Aurintricarboxylic acid] | 99.7% |
| COC(=O)[C@]12CCC(C)(C)C[C@H]1[C@H]1C(=O)C=C3[C@@]4(C)C=C(C#N)C(=O)C(C)(C)[C@@H]4CC[C@@]3(C)[C@]1(C)CC2 [Bardoxolone methyl] | 10.9% |
| Cc1c(-c2ccc(-c3ccccc3F)cc2)nc2ccc(F)cc2c1C(=O)O [Brequinar] | 30% |
| O=C1O/C(=C/Br)CCC1c1cccc2ccccc12 (centres undefined) [Bromoenol Lactone] | 62.3% |
| Nc1nc(Cl)nc2c1ncn2[C@H]1C[C@H](O)[C@@H](CO)O1 [Cladribine] | 7.92% |
| N#CC(C#N)=NNc1ccc(OC(F)(F)F)cc1 [FCCP] | 94.9% |
| O=C1c2cc([N+](=O)[O-])ccc2-n2c1nc1ccccc1c2=O [GNF-Pf-3777] | 72.7% |
| O=C(O)Cn1nnc(-c2cc(N3CCC(Oc4cc(F)ccc4Br)CC3)no2)n1 [MK-8245] | 78.1% |
| C=C(C=NNC(=N)N)NNC(=N)N [Mitoguazone] | 51.4% |
| COc1cc(/C=C/C(=O)N2CCC=CC2=O)cc(OC)c1OC [Piperlongumine] | 84.6% |
| C=C(C)[C@H]1Cc2c(ccc3c2O[C@@H]2COc4cc(OC)c(OC)cc4[C@@H]2C3=O)O1 [Rotenone] | 35.7% |
| Oc1ccc(Nc2nc(-c3ccc(Cl)cc3)cs2)cc1 [SKI II] | 89.3% |
| CC[C@@]1(O)C(=O)OCc2c1cc1n(c2=O)Cc2cc3c(CN(C)C)c(O)ccc3nc2-1 [Topotecan] | 20% |

same assay, conditions: 1000 nM; 72 h

| Structure (SMILES) | cell viability |
| --- | --- |
| O=C(C1CC1)N1CC[C@@H](C=C2NNC(=O)N2c2ccc(-c3ccc4occc4c3)cc2)C1 | 78.8% |
| C[C@H](NC(=O)c1sccc1OCc1ccc(Cl)cc1)c1ccccc1 | 96.2% |
| O=C(O)C1=CC(=C(c2ccc(O)c(C(=O)O)c2)c2ccc(O)c(C(=O)O)c2)C=CC1=O [Aurintricarboxylic acid] | 91.7% |
| COC(=O)[C@]12CCC(C)(C)C[C@H]1[C@H]1C(=O)C=C3[C@@]4(C)C=C(C#N)C(=O)C(C)(C)[C@@H]4CC[C@@]3(C)[C@]1(C)CC2 [Bardoxolone methyl] | 0.308% |
| Cc1c(-c2ccc(-c3ccccc3F)cc2)nc2ccc(F)cc2c1C(=O)O [Brequinar] | 33.1% |
| O=C1O/C(=C/Br)CCC1c1cccc2ccccc12 (centres undefined) [Bromoenol Lactone] | 1.83% |
| Nc1nc(Cl)nc2c1ncn2[C@H]1C[C@H](O)[C@@H](CO)O1 [Cladribine] | 6.26% |
| N#CC(C#N)=NNc1ccc(OC(F)(F)F)cc1 [FCCP] | 3.06% |
| O=C1c2cc([N+](=O)[O-])ccc2-n2c1nc1ccccc1c2=O [GNF-Pf-3777] | 46.2% |
| O=C(O)Cn1nnc(-c2cc(N3CCC(Oc4cc(F)ccc4Br)CC3)no2)n1 [MK-8245] | 62% |
| C=C(C=NNC(=N)N)NNC(=N)N [Mitoguazone] | 4.18% |
| COc1cc(/C=C/C(=O)N2CCC=CC2=O)cc(OC)c1OC [Piperlongumine] | 51.3% |
| C=C(C)[C@H]1Cc2c(ccc3c2O[C@@H]2COc4cc(OC)c(OC)cc4[C@@H]2C3=O)O1 [Rotenone] | 25.3% |
| Oc1ccc(Nc2nc(-c3ccc(Cl)cc3)cs2)cc1 [SKI II] | 44.4% |
| CC[C@@]1(O)C(=O)OCc2c1cc1n(c2=O)Cc2cc3c(CN(C)C)c(O)ccc3nc2-1 [Topotecan] | 18.6% |

same assay, conditions: 10000 nM; 72 h

| Structure (SMILES) | cell viability |
| --- | --- |
| O=C(C1CC1)N1CC[C@@H](C=C2NNC(=O)N2c2ccc(-c3ccc4occc4c3)cc2)C1 | 77.1% |
| C[C@H](NC(=O)c1sccc1OCc1ccc(Cl)cc1)c1ccccc1 | 1.02% |
| O=C(O)C1=CC(=C(c2ccc(O)c(C(=O)O)c2)c2ccc(O)c(C(=O)O)c2)C=CC1=O [Aurintricarboxylic acid] | > 100% |
| COC(=O)[C@]12CCC(C)(C)C[C@H]1[C@H]1C(=O)C=C3[C@@]4(C)C=C(C#N)C(=O)C(C)(C)[C@@H]4CC[C@@]3(C)[C@]1(C)CC2 [Bardoxolone methyl] | < 0% |
| Cc1c(-c2ccc(-c3ccccc3F)cc2)nc2ccc(F)cc2c1C(=O)O [Brequinar] | 20.7% |
| O=C1O/C(=C/Br)CCC1c1cccc2ccccc12 (centres undefined) [Bromoenol Lactone] | < 0% |
| Nc1nc(Cl)nc2c1ncn2[C@H]1C[C@H](O)[C@@H](CO)O1 [Cladribine] | 6.06% |
| N#CC(C#N)=NNc1ccc(OC(F)(F)F)cc1 [FCCP] | < 0% |
| O=C1c2cc([N+](=O)[O-])ccc2-n2c1nc1ccccc1c2=O [GNF-Pf-3777] | 20% |
| O=C(O)Cn1nnc(-c2cc(N3CCC(Oc4cc(F)ccc4Br)CC3)no2)n1 [MK-8245] | 57% |
